{"source": "ChEMBL document CHEMBL1133985", "about": "“Synthesis of diaminobutane derivatives as potent Ca(2+)-permeable AMPA receptor antagonists” (Bioorg Med Chem Lett, 2001)", "key": {"[1]": {"target": "Glutamate receptor ionotropic, AMPA (Rattus norvegicus) (UniProt P19491+P19492+P19493+P19490)", "experiment": "Antagonistic activity against Ca++permeable Ionotropic glutamate receptor AMPA as concentration of compound that reduces the inward current induced by kainate by 50% in Xenopus oocytes", "assay_type": "functional, cell-based", "details": "Oocyte; concentration not given here"}, "Rattus norvegicus": {"organism": "Rattus norvegicus", "details": "dose 3 mg/kg; route intravenous", "description": "Change in systolic blood pressure before and after intravenous administration of 3 mg/kg dose in rats"}, "[2]": {"target": "Glutamate receptor ionotropic, AMPA (Rattus norvegicus, UniProt P19490+P19491+P19492+P19493)"}, "[3]": {"experiment": "Inhibitory activity against [Ca(2+)]-impermeable Ionotropic glutamate receptor AMPA was determined", "details": "concentration not given here"}}, "data": [{"smiles": "O=C(Cc1cccc2ccccc12)N1CCC(CNCCCCCCC2CCCCC2)CC1", "values": [{"measurement": "inhibition", "setting": "[1]", "result": 1, "unit": "%"}, {"measurement": "Delta SBP", "setting": "Rattus norvegicus", "result": -50, "unit": "mmHg"}]}, {"smiles": "NCCCCNCC1CCN(C(=O)Cc2cccc3ccccc23)CC1", "values": [{"measurement": "inhibition", "setting": "[1]", "result": 54, "unit": "%"}, {"measurement": "Delta SBP", "setting": "Rattus norvegicus", "result": -53, "unit": "mmHg"}]}, {"smiles": "CC(C)NCCCCNCC1CCN(C(=O)Cc2cccc3ccccc23)CC1", "values": [{"measurement": "Delta SBP", "setting": "Rattus norvegicus", "result": 10, "unit": "mmHg"}, {"measurement": "IC50", "setting": "[2]", "result": 730, "unit": "nM"}]}, {"smiles": "CC(C)CNCCCCNCC1CCN(C(=O)Cc2cccc3ccccc23)CC1", "values": [{"measurement": "Delta SBP", "setting": "Rattus norvegicus", "result": 7, "unit": "mmHg"}, {"measurement": "IC50", "setting": "[2]", "result": 790, "unit": "nM"}]}, {"smiles": "CCCNCCCCNCC1CCN(C(=O)Cc2cccc3ccccc23)CC1", "values": [{"measurement": "Delta SBP", "setting": "Rattus norvegicus", "result": 9, "unit": "mmHg"}, {"measurement": "IC50", "setting": "[2]", "result": 740, "unit": "nM"}]}, {"smiles": "CN(C)CCCCNCC1CCN(C(=O)Cc2cccc3ccccc23)CC1", "values": [{"measurement": "Delta SBP", "setting": "Rattus norvegicus", "result": 12, "unit": "mmHg"}, {"measurement": "IC50", "setting": "[2]", "result": 530, "unit": "nM"}]}, {"smiles": "O=C(Cc1cccc2ccccc12)N1CCC(CNCCCCNCCCO)CC1", "values": [{"measurement": "inhibition", "setting": "[1]", "result": 44, "unit": "%"}, {"measurement": "Delta SBP", "setting": "Rattus norvegicus", "result": -6, "unit": "mmHg"}]}, {"smiles": "O=C(Cc1cccc2ccccc12)N1CCC(CNCCCCNCCN2CCCCC2)CC1", "values": [{"measurement": "Delta SBP", "setting": "Rattus norvegicus", "result": 5, "unit": "mmHg"}]}, {"smiles": "O=C(Cc1cccc2ccccc12)N1CCC(CCCCCCNCC2CCCCC2)CC1", "values": [{"measurement": "inhibition", "setting": "[1]", "result": 42, "unit": "%"}, {"measurement": "Delta SBP", "setting": "Rattus norvegicus", "result": -35, "unit": "mmHg"}]}, {"smiles": "O=C(Cc1cccc2ccccc12)N1CCC(CNCCCCNCC2CCOCC2)CC1", "values": [{"measurement": "inhibition", "setting": "[1]", "result": 35, "unit": "%"}, {"measurement": "Delta SBP", "setting": "Rattus norvegicus", "result": -22, "unit": "mmHg"}]}, {"smiles": "O=C(Cc1cccc2ccccc12)N1CCC(CNCCCCNCC2CCCCC2)CC1", "values": [{"measurement": "inhibition", "setting": "[3]", "result": 4.4, "unit": "%"}, {"measurement": "Delta SBP", "setting": "Rattus norvegicus", "result": 11, "unit": "mmHg"}, {"measurement": "IC50", "setting": "[2]", "result": 250, "unit": "nM"}]}, {"smiles": "O=C(Cc1cccc2ccccc12)N1CCC(CNCCCCN2CCCCC2)CC1", "values": [{"measurement": "Delta SBP", "setting": "Rattus norvegicus", "result": 4, "unit": "mmHg"}, {"measurement": "IC50", "setting": "[2]", "result": 390, "unit": "nM"}]}]}
